Experimental findings from US20250339569A1, “CARBONIC ANHYDRASE IX LIGANDS” (priority 2021, published 2025) are described below.

Data set [1] deals with T1, human carbonic anhydrase IX (hCAIX-Fc) (Homo sapiens, UniProt Q16790).
T1 construct: purchased SinoBliological (Sino Biological) 10107-H02H
The experiment in a line: Surface plasmon resonance assay with hCAIX-Fc. The data set is classed as binding. Conditions: 25° C.; for t1/2 category (activity): SPR dissociation half-life, hCAIX-Fc; for Kd: SPR, hCAIX-Fc captured, read-out: pKD category (activity) (converted). For orientation: In SPR one partner is held on a chip, and binding of the other changes the refractive index at the surface.

Data set [2] can be described thus: Plasma stability assay, mouse plasma. The settings on record: mouse plasma, 37°C.
Data set [3] concerns the target T2, CAIX-expressing human HT-29 colorectal cancer cells (Homo sapiens, UniProt Q16790).
T2 construct: CAIX-expressing human HT-29 colorectal cancer cells; host or cells: HT-29 human colorectal cancer cells
The experiment in a line: FACS binding assay (IC50 determination, competition with tracer 3BP-2776 or 3BP-4149). The settings on record: 4° C., 1 hour, read-out: pIC50 category (activity) (converted). In short, it runs like this: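 HT-29 cells in FACS buffer (PBS, 1% FCS) at 500.000 cells/ml were exposed to compounds competing with a labelled tracer, with biotinylated compounds detected by 1 μg/mL APC-streptavidin for 30 min on ice. APC/Cy5 median fluorescence was read by flow cytometry and IC50 derived by 4PL fit.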

Where [4] appears, read: FACS binding assay, HT-29 cells, competition with tracer 3BP-2776 (10 nM, biotin-labeled).
[5] abbreviates: FACS competition on HT-29 cells, Tracer ID 3BP-2776 (10 nM, biotin-labeled).

Like-named read-outs stand apart in the source and are kept apart here. Starred links: 1 amine or outer side, 2 acyl side, 3 side chain; linkers in the order of their positions; H or OH if unused. Positions of bridges follow the written chain, without caps; N, C: chain ends. Non-standard residues stand in square brackets, D forms with d. Residues, ends and D or L forms follow the SMILES beside them. ξ: configuration not given here. *: point of attachment. NH(CH2)3NH(O2Oc(DOTA)) = O=C(O)CN1CCN(CC(=O)O)CCN(CC(=O)NCCOCCOCC(=O)NCCCN*)CCN(CC(=O)O)CC1; DOTA = O=C(O)CN1CCN(CC(=O)O)CCN(CC(=O)*)CCN(CC(=O)O)CC1; ξTrp(7-Me) = Cc1cccc2c(CC(N)C(=O)O)c[nH]c12; Phe(4-NH2) = Nc1ccc(C[C@H](N)C(=O)O)cc1; mXylylene = c1cc(C[*:1])cc(C[*:2])c1; Orn(Me2) = CN(C)CCC[C@H](N)C(=O)O; X2 = O=C(CN1CCC(N[*:1])CC1)[*:2]; X1 = O=C(CN1CCN([*:1])CC1)[*:2]; X17 = NS(=O)(=O)c1cc(C(=O)*)cs1; Dap = NC[C@H](N)C(=O)O; Bn = c1ccc(C*)cc1

For `CC(C)C[C@@H]1NC(=O)[C@H](Cc2c[nH]c3ccccc23)NC(=O)[C@H](CSCc2ccccc2)NC(=O)[C@H]2CCCN2C(=O)[C@H](CCC(=O)O)NC(=O)[C@@H](NC(=O)[C@H](Cc2ccc(O)cc2)NC(=O)[C@@H](NC(=O)CN2CCC(NC(=O)CN3CCN(CC(=O)O)CCN(CC(=O)O)CCN(CC(=O)O)CC3)CC2)C(C)C)CSCc2cccc(c2)CSC[C@@H](C(N)=O)NC(=O)[C@H](CO)NC(=O)[C@H](Cc2c[nH]c3ccccc23)NC(=O)[C@H]([C@@H](C)O)NC1=O` [3BP-4128] ({DOTA}-[X2]VYCE[dP]C(Bn)WLTWSC-NH2; linker 4-13 via mXylylene), in data set [1], the “t1/2 category (activity)” value is “A (t1/2>15.0 minutes)” and the Kd was under 10 nM. Besides, the “% intact compound remaining (incubation time)” value (“% intact compound remaining” below) in data set [2] (24 h) is reported as 87%. In data set [3] (setting [4]), the IC50 was under 10 nM.

On to `CC(C)C[C@@H]1NC(=O)[C@H](Cc2c[nH]c3ccccc23)NC(=O)[C@H](CC(=O)O)NC(=O)[C@H]2CCCN2C(=O)[C@H](CCC(=O)O)NC(=O)[C@@H]2CSCc3cccc(c3)CSC[C@@H](C(N)=O)NC(=O)[C@H](CNC(=O)C[C@H](NC(=O)CN3CCN(C(=O)CN4CCN(CC(=O)O)CCN(CC(=O)O)CCN(CC(=O)O)CC4)CC3)C(=O)N2)NC(=O)[C@H](Cc2c[nH]c3ccccc23)NC(=O)[C@H]([C@@H](C)O)NC1=O` [3BP-4255] ({DOTA}-[X1]DCE[dP]DWLTW[Dap]C-NH2; lactam 2-11; linker 3-12 via mXylylene), for which, in data set [1], the “t1/2 category (activity)” value is listed as “D (t1/2≤2.0 minutes)” and the Kd is under 10 nM. For the same compound, in data set [2] (24 h), the “% intact compound remaining” value stood at 81%. In addition, the IC50 in data set [3] (setting [4]) is under 10 nM.

Turning to `CC(=O)N[C@@H](CCCCNC(=O)CN1CCN(CC(=O)O)CCN(CC(=O)O)CCN(CC(=O)O)CC1)C(=O)N[C@H](C(=O)N[C@@H](Cc1ccc(O)cc1)C(=O)N[C@H]1CSCc2cccc(c2)CSC[C@@H](C(N)=O)NC(=O)[C@H](CO)NC(=O)[C@H](Cc2c[nH]c3ccccc23)NC(=O)[C@H]([C@@H](C)O)NC(=O)[C@H](CC(C)C)NC(=O)[C@H](Cc2c[nH]c3ccccc23)NC(=O)[C@H](CC(=O)O)NC(=O)[C@H]2CCCN2C(=O)[C@H](CCC(=O)O)NC1=O)C(C)C` [3BP-3840] (Ac-K(DOTA)VYCE[dP]DWLTWSC-NH2; linker 4-13 via mXylylene), in data set [1], the “t1/2 category (activity)” value was “B (t1/2 between 5.1 and 15.0 minutes)”; the Kd is under 10 nM. The “% intact compound remaining” value in data set [2] (24 h) is recorded as over 95%. In addition, the IC50 in data set [3] (setting [5]) was under 10 nM.

For the compound `CC(C)C[C@@H]1NC(=O)[C@H](Cc2c[nH]c3ccccc23)NC(=O)[C@H](CC(=O)O)NC(=O)[C@H]2CCCN2C(=O)[C@H](CCC(=O)O)NC(=O)[C@@H](NC(=O)[C@H](Cc2ccc(O)cc2)NC(=O)[C@@H](NC(=O)CN2CCC(NC(=O)CN3CCN(CC(=O)O)CCN(CC(=O)O)CCN(CC(=O)O)CC3)CC2)C(C)C)CSCc2cccc(c2)CSC[C@@H](C(N)=O)NC(=O)[C@H](CCCNC(=N)N)NC(=O)[C@H](Cc2c[nH]c3ccccc23)NC(=O)[C@H]([C@@H](C)O)NC1=O` [3BP-3599] ({DOTA}-[X2]VYCE[dP]DWLTWRC-NH2; linker 4-13 via mXylylene), in data set [1], the “t1/2 category (activity)” value was “B (t1/2 between 5.1 and 15.0 minutes)”; the Kd was under 10 nM. Besides, the “% intact compound remaining” value in data set [2] (6 h) was found to be 52%. For the same compound, the IC50 in data set [3] (setting [5]) was under 10 nM.

Turning to `CC(=O)N[C@H](C(=O)N[C@@H](CCCNC(=N)N)C(=O)N[C@H]1CSCc2cccc(c2)CSC[C@@H](C(N)=O)NC(=O)[C@H](CCC(=O)NCCCNC(=O)COCCOCCNC(=O)CN2CCN(CC(=O)O)CCN(CC(=O)O)CCN(CC(=O)O)CC2)NC(=O)[C@H](Cc2c[nH]c3ccccc23)NC(=O)[C@H]([C@@H](C)O)NC(=O)[C@H](CC(C)C)NC(=O)[C@H](Cc2c[nH]c3ccccc23)NC(=O)[C@H](CC(=O)O)NC(=O)[C@H]2CCCN2C(=O)[C@H](CCC(=O)O)NC1=O)C(C)C` [3BP-3845] (Ac-VRCE[dP]DWLTWE(NH(CH2)3NH(O2Oc(DOTA)))C-NH2; linker 3-12 via mXylylene), in data set [2] (24 h), the “% intact compound remaining” value came out at 76%.

Consider `CC(C)C[C@@H]1NC(=O)[C@H](Cc2c[nH]c3ccccc23)NC(=O)[C@H](CC(=O)O)NC(=O)[C@H]2CCCN2C(=O)[C@H](CCC(=O)O)NC(=O)[C@@H](NC(=O)[C@H](Cc2ccc(O)cc2)NC(=O)CN2CCN(CC(=O)O)CCN(CC(=O)O)CCN(CC(=O)O)CC2)CSCc2cccc(c2)CSC[C@@H](C(N)=O)NC(=O)[C@H](CO)NC(=O)[C@H](Cc2c[nH]c3ccccc23)NC(=O)[C@H]([C@@H](C)O)NC1=O` [3BP-3906] ({DOTA}-YCE[dP]DWLTWSC-NH2; linker 2-11 via mXylylene), for which, in data set [1], the Kd was under 10 nM. The “% intact compound remaining” value in data set [2] (24 h) is over 95%.

Turning to `CC(C)C[C@@H]1NC(=O)[C@H](Cc2c[nH]c3ccccc23)NC(=O)[C@H](CC(=O)O)NC(=O)[C@H]2CCCN2C(=O)[C@H](CCC(=O)O)NC(=O)[C@@H](NC(=O)[C@H](CCCN(C)C)NC(=O)[C@@H](NC(=O)CN2CCC(NC(=O)CN3CCN(CC(=O)O)CCN(CC(=O)O)CCN(CC(=O)O)CC3)CC2)C(C)C)CSCc2cccc(c2)CSC[C@@H](C(N)=O)NC(=O)[C@H](CO)NC(=O)[C@H](Cc2c[nH]c3ccccc23)NC(=O)[C@H]([C@@H](C)O)NC1=O` [3BP-4095] ({DOTA}-[X2]V[Orn(Me2)]CE[dP]DWLTWSC-NH2; linker 4-13 via mXylylene), in data set [1], the “t1/2 category (activity)” value was “B (t1/2 between 5.1 and 15.0 minutes)”; the Kd is under 10 nM. Moreover, the IC50 in data set [3] (setting [4]) was under 10 nM.

Turning to `CC(C)C[C@@H]1NC(=O)[C@H](Cc2c[nH]c3ccccc23)NC(=O)[C@@H]2CCCCNC(=O)CC[C@H](NC1=O)C(=O)N[C@@H](Cc1c[nH]c3ccccc13)C(=O)N[C@@H](CO)C(=O)N[C@H](C(N)=O)CSCc1cccc(c1)CSC[C@H](NC(=O)[C@H](Cc1ccc(O)cc1)NC(=O)CN1CCN(CC(=O)O)CCN(CC(=O)O)CCN(CC(=O)O)CC1)C(=O)N[C@@H](CCC(=O)O)C(=O)N1CCC[C@@H]1C(=O)N2` [3BP-4053] ({DOTA}-YCE[dP]KWLEWSC-NH2; linker 2-11 via mXylylene; lactam 5-8), the “% intact compound remaining” value in data set [2] (24 h) is reported as 91%.

As to `CC(C)C[C@@H]1NC(=O)[C@H](Cc2c[nH]c3ccccc23)NC(=O)[C@H](CC(=O)O)NC(=O)[C@H]2CCCN2C(=O)[C@H](CCC(=O)O)NC(=O)[C@@H](NC(=O)[C@H](Cc2ccc(O)cc2)NC(=O)[C@@H](NC(=O)CN2CCC(NC(=O)CN3CCN(CC(=O)O)CCN(CC(=O)O)CCN(CC(=O)O)CC3)CC2)C(C)C)CSCc2cccc(c2)CSC[C@@H](C(N)=O)NC(=O)[C@H](CO)NC(=O)[C@H](Cc2c[nH]c3ccccc23)NC(=O)[C@H]([C@@H](C)O)NC1=O` [3BP-3905] ({DOTA}-[X2]VYCE[dP]DWLTWSC-NH2; linker 4-13 via mXylylene), in data set [1], the Kd was under 10 nM. For the same compound, the “% intact compound remaining” value in data set [2] (24 h) was found to be 83%.

`CC(C)C[C@@H]1NC(=O)[C@H](Cc2ccc(NC(=O)c3csc(S(N)(=O)=O)c3)cc2)NC(=O)[C@H](CC(=O)O)NC(=O)[C@H]2CCCN2C(=O)[C@H](CCC(=O)O)NC(=O)[C@@H](NC(=O)[C@H](Cc2ccc(O)cc2)NC(=O)[C@@H](NC(=O)CN2CCC(NC(=O)CN3CCN(CC(=O)O)CCN(CC(=O)O)CCN(CC(=O)O)CC3)CC2)C(C)C)CSCc2cccc(c2)CSC[C@@H](C(N)=O)NC(=O)[C@H](CO)NC(=O)[C@H](Cc2c[nH]c3ccccc23)NC(=O)[C@H]([C@@H](C)O)NC1=O` [3BP-4401] ({DOTA}-[X2]VYCE[dP]D[Phe(4-NH2)](X17)LTWSC-NH2; linker 4-13 via mXylylene): in data set [1], the “t1/2 category (activity)” value was “A (t1/2>15.0 minutes)” and the Kd was under 10 nM. The IC50 in data set [3] (FACS binding assay, HT-29 cells, competition with tracer 3BP-4149 (3 nM, Cy5-labeled)) is under 10 nM.

As to `Cc1cccc2c(CC3NC(=O)[C@H](CC(=O)O)NC(=O)[C@H]4CCCN4C(=O)[C@H](CCC(=O)O)NC(=O)[C@@H](NC(=O)[C@H](Cc4ccc(O)cc4)NC(=O)[C@@H](NC(=O)CN4CCC(NC(=O)CN5CCN(CC(=O)O)CCN(CC(=O)O)CCN(CC(=O)O)CC5)CC4)C(C)C)CSCc4cccc(c4)CSC[C@@H](C(N)=O)NC(=O)[C@H](CO)NC(=O)[C@H](Cc4c[nH]c5ccccc45)NC(=O)[C@H]([C@@H](C)O)NC(=O)[C@H](CC(C)C)NC3=O)c[nH]c12` (stereo partly shown) [3BP-4158] ({DOTA}-[X2]VYCE[dP]D[ξTrp(7-Me)]LTWSC-NH2; linker 4-13 via mXylylene), in data set [1], the “t1/2 category (activity)” value is “B (t1/2 between 5.1 and 15.0 minutes)”; the Kd is under 10 nM. The IC50 in data set [3] (setting [4]) is under 10 nM.

Turning to `CC(C)C[C@@H]1NC(=O)[C@H](Cc2cccc(NC(=O)c3cccc(NS(N)(=O)=O)n3)c2)NC(=O)[C@H](CC(=O)O)NC(=O)[C@H]2CCCN2C(=O)[C@H](CCC(=O)O)NC(=O)[C@@H](NC(=O)[C@H](CCC(N)=O)NC(=O)CN2CCN(C(=O)CN3CCN(CC(=O)O)CCN(CC(=O)O)CCN(CC(=O)O)CC3)CC2)CSCc2cccc(c2)CSC[C@@H](C(N)=O)NC(=O)[C@H](CO)NC(=O)[C@H](Cc2c[nH]c3ccccc23)NC(=O)[C@H]([C@@H](C)O)NC1=O` [3BP-4514], in data set [1], the “t1/2 category (activity)” value is “B (t1/2 between 5.1 and 15.0 minutes)”; the Kd is under 10 nM. The IC50 in data set [3] (setting [4]) was under 10 nM.
